Assay results as given in patent US10851073B2, “Protein tyrosine phosphatase inhibitors and methods of use thereof” (Calico Life Sciences LLC, priority 2019, dated 2020).

What was measured:
[1] = target: T1, His tagged PTPN2 (TC45) protein (Homo sapiens, UniProt P17706); assay: Mobility shift assay used to determine potency of PTPN2 inhibitors; format: biochemical; settings: enzyme 0.5 nM, substrate 2 μM; read-out: PTPN2 MSA IC50
T1 construct: made in house
T1 sequence (P17706 with tags, fused parts or gaps isoform P17706-2): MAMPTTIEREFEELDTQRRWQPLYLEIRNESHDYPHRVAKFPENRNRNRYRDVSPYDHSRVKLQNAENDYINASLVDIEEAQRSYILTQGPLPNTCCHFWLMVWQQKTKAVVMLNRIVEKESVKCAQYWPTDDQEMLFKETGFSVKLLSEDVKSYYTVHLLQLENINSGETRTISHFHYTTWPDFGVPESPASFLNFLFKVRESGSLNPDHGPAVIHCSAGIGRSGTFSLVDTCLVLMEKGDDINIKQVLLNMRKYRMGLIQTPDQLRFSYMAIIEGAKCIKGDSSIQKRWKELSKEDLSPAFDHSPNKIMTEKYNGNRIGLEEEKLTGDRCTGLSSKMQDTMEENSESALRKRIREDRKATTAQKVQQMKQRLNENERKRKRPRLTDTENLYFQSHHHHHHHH
Outline: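 Enzyme (0.5 nM) preincubated with compound (12-point, 1:3 dilution) 10 min at room temperature in 50 mM HEPES pH 7.5, 1 mM EGTA, 10 mM EDTA, 0.01% Tween 20, 2 mM DTT; OG488-labelled phospho-insulin-receptor peptide substrate (2 μM) added for 10 min, then quenched. Microfluidic mobility shift (ex 488/em 530 nm) gave % conversion; IC50 from % inhibition.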

[2] = tested on: IFNγ-induced STAT1 phosphorylation in CD14+ monocytes; assay: Human whole blood pSTAT1 proximal pharmacodynamic (PD) assay; format: cell-based; settings: Monocyte, 3 hours compound, IFNγ 20 minutes
Experimental: Example 230: Human Whole Blood pSTAT1 Proximal Pharmacodynamic (PD) Assay Human blood samples were acquired through internal AbbVie Inc's blood donation program in accordance with AbbVie's Occupational Safety and Health Administration protocols. Blood was collected by venipuncture into sodium heparin coated vacutainer tubes and kept at room temperature for no longer than 1 hour prior to the experiment initiation. Human blood samples (90 μL) were added to the individual wells of 96-well plates containing 10 μL of 10× working stock solutions of increasing concentrations of compounds to achieve final concentrations ranging from 0.025 μM to 500 μM and incubated for 3 hours at 37° C. To induce STAT1 phosphorylation the samples were then treated with recombinant human IFNγ (R&D Systems, Catalog^#285-IF, Minneapolis, Minn.; 100 nM final concentration) for 20 minutes, and 3 μL/well BV421 labeled anti-CD14 surface antibody (Biolegend, San Diego, Calif., Catalog^#301830) was added for 45 minutes before fixation and red blood cell lysis was performed with BD Phosflow Lyse/Fix buffer (BD Biosciences, San Jose, Calif., Catalog^#558049). Cells were subsequently permeabilized on ice by the addition of BD Perm III buffer (BD Biosciences, San Jose, Calif., Catalog^#558050) and stored at -80° C. until use. Before staining, the cells were washed with PBS containing 0.1% BSA. Optim/zed concentrations of BUV395 labeled anti-CD45 (BD Biosciences, San Jose, Calif., Catalog^#563792) and PE labeled anti-phospho-STAT1 ([…]; Invitrogen, Carlsbad, Calif., Catalog^#12-9008-42) antibodies were added to the cell suspensions and incubated for 2 hours. The cells were washed with PBS containing 0.1% BSA and analyzed on a BD LSRFortessaTM X20 flow cytometer (BD Biosciences, San Jose, Calif.) using BD FACSDivaTM software. The data was analyzed using FlowJo V10 analysis software (Flow Jo LLC, Ashland, Oreg.). The amount of STAT phosphorylation was measured by the mean fluorescence intensity (MFI) of pSTAT1 in CD14+monocytes. Compound dose-response curves were determined using a four-parameter logistic-nonlinear regression model from which half maximal effective concentrations (EC50) were calculated. All statistical analyses utilized GraphPad software (San Diego, Calif.).

SMILES | EC50 [2] [nM] | IC50 [1] [nM]
O=C1CN(c2c(O)cc3c(c2F)C[C@H](NCCCC(F)F)CC3)S(=O)(=O)N1 (single isomer, unassigned) [Compound 199] | 830 | < 1
CC(C)CCN[C@@H]1CCc2cc(O)c(N3CC(=O)NS3(=O)=O)c(F)c2C1 (single isomer, unassigned) [Compound 118] | 580 | 1 to 10
O=C1CN(c2c(O)cc3c(c2F)C[C@H](NCCC(F)F)CC3)S(=O)(=O)N1 (single isomer, unassigned) [Compound 260] | 4400 | 1 to 10

More lines, in order of falling EC50 [2], values ahead:

EC50 [2] [nM] | SMILES | IC50 [1] [nM]
14200 | O=C1CN(c2c(O)cc3c(c2F)C[C@@H](NCCC(F)F)CC3)S(=O)(=O)N1 (single isomer, unassigned) [Compound 259] | 10 to 100
2000 | CC(C)(CCN[C@@H]1CCc2cc(O)c(N3CC(=O)NS3(=O)=O)c(F)c2C1)C(F)(F)F (single isomer, unassigned) [Compound 177] | < 1
1600 | O=C1CN(c2c(O)cc3c(c2F)C[C@H](NCCC2CC2)CC3)S(=O)(=O)N1 (single isomer, unassigned) [Compound 133] | 1 to 10
